Data as given in patent publication US8097585B2, “Methods of treating inflammation by administration of heme oxygenase-1 and products of heme degradation” (priority 2002, dated 2012).

Tests used:
DSS-colitis = DSS-colitis (acute colitis) mouse model: weight loss, DAI, symptoms, crypt score; type: in vivo, C57BL/6 mice
Text: Animals. Pathogen-free male C57BL/6 mice, 4-6 weeks of age (Taconic; C57BL/6×129 svj strain) were used in this example. Mice were kept for one week at 4 mice/cage and fed normal laboratory chow and drinking water ad libitum prior to the experiments. All mice weighed between 22.5 g and 27.7 g at the beginning of the trial. The animal experimentation protocol was reviewed and approved by the Animal Care and Use Committees of the Beth Israel Deaconess Medical Center.
Induction of Colitis. Colitis was induced by feeding mice 5% (wt/v) dextran sodium sulfate (DSS) (MW 40,000; ICN Biomedicals Inc., OH), dissolved in distilled water, for a period of 7 days. The resulting condition was termed “DSS-colitis.” Control animals were fed distilled water ad libitum. The mortality rate in the control group and the CO-treated group was 10% (2/20) and 14% (2/14), respectively. These animals were excluded from the statistical analysis. In the other groups, no mortality occurred during 7 days of 5% DSS treatment.
Experimental Reagents and Treatment Protocol. Cobalt protoporphyrin (CoPPIX), zinc protoporphyrin (ZnPPIX, Porphyrin Products, Logan, Utah) and biliverdin dihydrochloride (ICN Biomedicals Inc., OH) were dissolved in a small amount 0.2 M NaOH, subsequently adjusted to a pH of 7.4 with 1 M HCl, and diluted in 0.9% NaCl. The stock solutions (CoPPIX and ZnPPIX=1 mg/ml, biliverdin=10 mM) were aliquoted and kept at −70° C. until used. Light exposure was limited as much as possible. CoPPIX (5 mg/kg), ZnPPIX (20 mg/kg) and biliverdin (50 μmol/kg) were administered to the mice intraperitoneally (i.p.) 24 hours before induction of DSS-colitis and daily thereafter. Desferoxamine (DFO) was prepared in imidazole buffer (50 mM imidazole, 220 mM NaCl, pH 7.4). DFO was injected subcutaneously (s.c.) twice daily (125 mg/kg) or infused i.p. (130 mg/kg/day; pumping rate 0.5 μl/hour for 8 days) by miniosmotic Alzet™ pumps (Alza Corporation, Palo Alto, Calif.) (Postma et al., Exp. Parasitol. 89(3):323-30 1998). The pumps were installed i.p. 24 hours before induction of colitis. When animals were sacrificed at day 7 of DSS treatment, the pumps were removed and evaluated to determine if DFO application had taken place.
CO gas was administrated exogenously by putting animals in a CO exposure chamber (Otterbein et al., Nat. Med. 6(4):422-8, 2000). Briefly, CO at a concentration of 1% (10,000 parts per million (ppm)) in compressed air was mixed with balanced air (21% oxygen) in a stainless steel mixing cylinder before entering the exposure chamber. CO concentrations were controlled by varying the flow rates of CO in a mixing cylinder before delivery to the chamber. Because the flow rate is primarily determined by the O2 flow, only the CO flow was changed to deliver the final concentration to the exposure chamber. A CO analyzer (Interscan Corporation, Chatsworth, Calif.) was used to measure CO levels continuously in the chamber. Mice were placed in the chamber 24 hours before the induction of the colitis and were kept in the exposure chamber during the whole period of the experiment (total of 8 days). […] Animals were removed daily from the chamber to assess weight and stool.
Evaluation of Symptoms of Colitis. All animals were evaluated clinically on a daily basis. The evaluation of each animal included a measurement of weight, hemoccult positivity and examination of stool for the presence of gross blood and stool consistency. The disease activity index (DAI) was calculated by scoring percent weight loss, intestinal bleeding (no blood; occult blood=hemoccult+; gross blood) and stool consistency (normal stool=well-formed pellets; loose stool=pasty and semiformed stools; diarrhea=liquid stool that stuck to the anus) (Table 1).
The animals were sacrificed, and the whole colon from the colo-cecal junction to the anal verge was removed and gently cleaned of stool. […]

[1] = tested on: DBA/2 cardiac allografts in B6AF1 recipients; experiment: Heterotopic cardiac allograft transplantation, graft survival; type: in vivo, mice
Protocol: Animals. Male DBA/2 (H-2^d), B6AF1 (H-2^k/d,b) and FVB (H-2^q) mice were purchased from Jackson Lab. Inc. (Bar Harbor, Me.). They were maintained in the institutional specific-pathogen free facility, which has an appropriate light cycle with free access to water and chow ad libitum, and used for experiments at age of 6-10 weeks.
Cardiac transplantation. DBA2/J and B6AF1 mice were used as donor and recipient, respectively. Heterotopic heart transplantation was carried out according to the procedure of Corry and Russell (Corry et al., Transplant Proc. 5(1):733-5, 1973). […] Secondary heart grafting into the neck was performed using a cuff technique as described previously (Matsuura et al., Transplantation 51(4):896-8, 1991). Briefly, the heart graft was harvested from either DBA2/J (donor strain) or FVB (third-party strain) mice. The right jugular vein and the right common carotid artery of recipient were dissected, and a cuff (polyethylene or polyimide) was connected to these vessels. The graft aorta and pulmonary artery were sleeved over the cuff on the recipient's common carotid artery and the jugular vein, respectively, and fixed with a ligature. After transplantation, beating of the graft was monitored by daily palpation, and scored +1 to +4 according to the strength of graft contractions. Graft rejection was defined as cessation of beating, and was confirmed by direct inspection followed by histological examination.
Donor and recipient mice were treated either with CoPPIX (5 mg/kg/day), ZnPPIX (5 mg/kg/day) or biliverdin (administered once, twice or three times per day at a dose of 50 μmol/kg/dose). All reagents were administered by intraperitoneal (i.p.) injection. Donor animals were treated for 2 days, starting from 2 days before graft harvest (day-2 and day-1). Treatment of recipient mice was initiated one day before transplantation, and continued until 13 days post-transplant (day-1 to day 13). For the experiments using donor splenocyte infusion (DSI) on day-7 (DSI (D-7)), treatments of recipient animals (either with CoPPIX or ZnPPIX) started from day-8 and were terminated on day 6. Recipients received no further treatment. Spleen cells (2×10^7) isolated from DBA/2J mice as described herein were used for DSI treatment. The cells were injected via the penile vein with 200 μl of 0.9% saline solution.
Statistics. Cardiac graft survival was plotted by the Kaplan-Meier method, and a log-rank test was applied to compare statistical significance. Expression levels of HO-1/α-actin protein are expressed as mean±standard deviation. Other data are expressed as mean±standard error of the mean (mean±SEM). Intergroup statistical analysis was performed by one-way ANOVA, and Fisher's PSLD was used for a post-hoc test. A comparison was considered statistically significant when the p-value was <0.05.

HO-1 = experiment: HO activity assay on spleen and heart of treated mice; type: in vivo, DBA/2J mice; conditions: 5 mg/kg i.p., one day after treatment
Protocol: HO activity assay. DBA/2J mice were given either no treatment or CoPPIX or ZnPPIX at a dose of 5 mg/kg, i.p. (n=10 per group). One day after the treatment, the animals were sacrificed, the spleen and the heart were excised, and tissue samples were frozen at −80° C. Frozen tissue samples were homogenized in ice-cold sucrose and Tris-HCl buffer. The microsomal pellet was obtained after centrifugation and re-suspended in MgCl2-potassium phosphate buffer. Sample protein was then incubated with the reaction mixture containing rat liver cytosol, hemin, glucose-6-phosphate, glucose-6-phosphate dehydrogenase and NADPH (Sigma-Aldrich Corporation, St. Louis, Mo.) for 60 minutes at 37° C. The generated bilirubin was measured by reacting with diazotized surfanilic acid to yield azobilirubin using spectrophotometer.

recipient splenocytes = experiment: Mixed lymphocyte culture with splenocytes of treated cardiac allograft recipients; type: in vivo, mice; conditions: harvested 5 days after cardiac transplantation, 72 hours culture with DBA/2 splenocytes; compared to controls
Protocol: Mixed lymphocyte culture (MLC). Irradiated (25Gy, ^137Cs) DBA/2 splenocytes (5×10^5/well) were co-cultured with responders (5×10^5/well) in a 96 well round bottom plates for 3 days at 37° C., 95% air with 5% CO2. When using cells from cardiac recipients as responders, the co-culture period was 3 days without any further in vitro treatment. ^3H-thymidine (1 μCi/well) was added 16 hours before termination of cell culture, and ^3H-thymidine incorporation was measured.
Induction of HO-1 expression or biliverdin administration suppresses the T cell mediated alloimmune response in vivo. […] Recipient splenocytes harvested 5 days after cardiac transplantation were used as responder cells in an in vitro culture with DBA/2 splenocytes as feeder cells. Proliferation was measured at 72 hours (FIG. 9).

[2] = tested on: DBA/2 islets in diabetic B6AF1 recipients; experiment: Allogeneic islet transplantation, graft survival and tolerance test; type: in vivo, mice
Protocol: Animals. Male DBA/2, B6AF1 and DBA/1 mice 6-8 week of age (Jackson) are used in the experiments. Mice were kept for 2 weeks at 4 mice/cage and fed normal laboratory chow before using for the experiment.
Treatment protocol. Recipients were rendered diabetic using streptozotocin (STZ, 225 mg/kg). Five days after STZ administration, animals with two consecutive blood glucose levels exceeding 350 mg/dl are used as recipients. Islets (500) are transplanted under the kidney capsule of the recipients.
Reagents. Cobalt protoporphyrin (CoPPIX, Porphyrin Products, Logan, Utah), biliverdin dihydrochloride and bilirubin (ICN Biomedicals Inc., OH) were dissolved in a small amount of 0.2 M NaOH, subsequently adjusted to a pH of 7.4 with 1 M HCl, and diluted in 1×PBS. The stock solutions (CoPPIX=2 mg/ml, biliverdin=3.2 mg/ml, bilirubin=0.5 mg/ml) were aliquoted and kept at −70° C. until used. Light exposure was limited as much as possible.
Induction of HO-1/Administration of biliverdin/bilirubin. When given to the donor, CoPPIX (20 mg/kg) was given 24 hours before islet isolation to induce HO-1 expression. To verify HO-1 expression in different organs after CoPP treatment, tissue samples are collected 24 hours after treatment and snap frozen in liquid nitrogen. Immunohistological analysis of HO-1 expression is performed using an anti-HO-1 antibody. CoPPIX (20 mg/kg) was administrated to the recipient intraperitoneally (i.p.) on day-1, 1, 3, 5 and 7. Biliverdin (50 μmol/kg) or bilirubin (8.5 μmol/kg) was given intraperitoneally to the donor one hour before islet isolation. For the recipient, biliverdin (50 μmol/kg) or bilirubin ([…]) was administered intraperitoneally either daily or twice per day from day-1 until day 13. No further treatment was given afterwards.
Measurement of Glucose level. Glucose levels were tested twice weekly after transplantation. Glucose levels of <200 mg/dl were considered normoglycemic. Grafts were considered rejected when two consecutive glucose levels were >300 mg/dl.
Tolerance test. The first graft was removed from a number of animals that had islets surviving long-term (longer than 100 days) by doing a nephrectomy. Islets syngeneic with the original donor were transplanted under the contralateral kidney capsule without further treatment. If those second transplanted islets also survived longer than 100 days without further treatment, the recipients were considered tolerant.

## CC(=O)N(O)CCCCCNC(=O)CCC(=O)N(O)CCCCCNC(=O)CCC(=O)N(O)CCCCCN [DFO, Desferoxamine]
DSS-colitis; intraperitoneal osmotic pumps, 130 mg/kg/d
  protective effect on DSS-colitis: no protective effect was observed
DSS-colitis; subcutaneous injections of 125 mg/kg twice daily
  protective effect on DSS-colitis: no protective effect

## C=CC1=C(C)c2cc3[n-]c(cc4nc(cc5[n-]c(cc1n2)c(C)c5C=C)C(C)=C4CCC(=O)O)c(CCC(=O)O)c3C.[Zn+2] [ZnPP, zinc protoporphyrin]
[1]; ZnPPIX plus DSI (D0), compared to control or DSI (D0) alone
  graft prolongation effect: no significant graft prolongation effect
[1]; ZnPPIX plus DSI (D-7)
  allografts with long-term survival: 0/9
  graft MST: 13 days
[1]; one dose per day i.p. (ZnPPIX 5 mg/kg; biliverdin 50 μmol/kg), untreated 11.5 days
  graft median survival time (MST): 11 days
HO-1
  HO-1 enzymatic activity: this was not the case
DSS-colitis; ZnPPIX 20 mg/kg i.p. daily, compared to untreated animals
  effect on natural course of DSS colitis: no significant changes
Recipient splenocytes
  proliferation of recipient splenocytes: did not

## C=CC1=C(C)/C(=C/c2[nH]c(Cc3[nH]c(/C=C4\NC(=O)C(C)=C4C=C)c(C)c3CCC(=O)O)c(CCC(=O)O)c2C)NC1=O [bilirubin]
[2]; 2 dose per day (every twelve hours)
  long-term survival of islets: 100%
[2]; single dose per day to donor and recipient
  long-term survival of islets: 50%
